Test results published in PubChem BioAssay AID1259407 (Chemical Carcinogenesis Research Information System (CCRIS), 2018).
Activity calls are given as the source filed them. No rule for the calls is given here.

Test system: CCRIS mutagenicity, Ames/micronucleus/aberration tests
Experiment: CCRIS mutagenicity studies
[1] = Test System: AMES SALMONELLA TYPHIMURIUM, Strain/Indicator: TA100, Metabolic Activation: NONE, Method: STANDARD PLATE
[2] = Test System: AMES SALMONELLA TYPHIMURIUM, Strain/Indicator: TA98, Metabolic Activation: NONE, Method: PREINCUBATION

Structure (SMILES): CCCOc1ccccc1C(=O)NOC(C)=O
- mutagenic call [1]: active; positive
- mutagenic call (Test System: AMES SALMONELLA TYPHIMURIUM, Strain/Indicator: TA100, Metabolic Activation: RAT, S-9, AROCLOR, Method: STANDARD PLATE): active; positive

Structure (SMILES): Oc1ccc(N=Nc2ccccn2)c(O)c1
- mutagenic call (End Point: Mouse lymphoma, Test System: L5178Y (TK+/TK-)/trifluorothymidine, Metabolic Activation: None, Method: Suspension/plate): inactive; negative
- mutagenic call (End Point: Mouse lymphoma, Test System: L5178Y (TK+/TK-)/trifluorothymidine, Metabolic Activation: Rat, Liver, S-9, Method: Suspension/plate): inactive; negative
- mutagenic call (Test System: Ames Salmonella typhimurium, Strain/Indicator: TA98, Metabolic Activation: None): inactive; negative
- mutagenic call (Test System: Ames Salmonella typhimurium, Strain/Indicator: TA98, Metabolic Activation: Rat, Liver, S-9): inactive; negative
- mutagenic call (Test System: Ames Salmonella typhimurium, Strain/Indicator: TA100, Metabolic Activation: None): inactive; negative
- mutagenic call (Test System: Ames Salmonella typhimurium, Strain/Indicator: TA100, Metabolic Activation: Rat, Liver, S-9): inactive; negative
- mutagenic call (Test System: Ames Salmonella typhimurium, Strain/Indicator: TA1535, Metabolic Activation: None): inactive; negative
- mutagenic call (Test System: Ames Salmonella typhimurium, Strain/Indicator: TA1535, Metabolic Activation: Rat, Liver, S-9): inactive; negative
- mutagenic call (Test System: Ames Salmonella typhimurium, Strain/Indicator: TA1537, Metabolic Activation: None): inactive; negative
- mutagenic call (Test System: Ames Salmonella typhimurium, Strain/Indicator: TA1537, Metabolic Activation: Rat, Liver, S-9): inactive; negative

Structure (SMILES): CN(CCCl)c1ccc(/C=C/C2=[N+](C)c3ccccc3C2(C)C)cc1
- mutagenic call (Test System: Ames Salmonella typhimurium, Strain/Indicator: TA98, Metabolic Activation: None, Method: Preincubation): inactive; negative
- mutagenic call (Test System: Ames Salmonella typhimurium, Strain/Indicator: TA98, Metabolic Activation: Rat, Liver, S-9, Aroclor 1254, Method: Preincubation): inactive; negative
- mutagenic call (Test System: Ames Salmonella typhimurium, Strain/Indicator: TA100, Metabolic Activation: None, Method: Preincubation): inactive; negative
- mutagenic call (Test System: Ames Salmonella typhimurium, Strain/Indicator: TA100, Metabolic Activation: Rat, Liver, S-9, Aroclor 1254, Method: Preincubation): inactive; negative
- mutagenic call (Test System: Ames Salmonella typhimurium, Strain/Indicator: TA102, Metabolic Activation: None, Method: Preincubation): inactive; negative
- mutagenic call (Test System: Ames Salmonella typhimurium, Strain/Indicator: TA102, Metabolic Activation: Rat, Liver, S-9, Aroclor 1254, Method: Preincubation): inactive; negative
- mutagenic call (Test System: Ames Salmonella typhimurium, Strain/Indicator: TA1535, Metabolic Activation: None, Method: Preincubation): inactive; negative
- mutagenic call (Test System: Ames Salmonella typhimurium, Strain/Indicator: TA1535, Metabolic Activation: Rat, Liver, S-9, Aroclor 1254, Method: Preincubation): inactive; negative

Structure (SMILES): O=[N+]([O-])c1ccc2nc3c([N+](=O)[O-])cccc3nc2c1
- mutagenic call (Test System: AMES SALMONELLA TYPHIMURIUM, Strain/Indicator: TA98(NR), Metabolic Activation: NONE, Method: PREINCUBATION): active; positive
- mutagenic call [2]: active; positive

Structure (SMILES): NCCN1CCNCC1
- mutagenic call [2]: inactive; negative
- mutagenic call (Test System: AMES SALMONELLA TYPHIMURIUM, Strain/Indicator: TA98, Metabolic Activation: NONE, Method: STANDARD PLATE): inactive; negative
- mutagenic call (Test System: AMES SALMONELLA TYPHIMURIUM, Strain/Indicator: TA98, Metabolic Activation: RAT, LIVER, S-9, AROCLOR 1254, Method: STANDARD PLATE): inactive; negative
- mutagenic call (Test System: AMES SALMONELLA TYPHIMURIUM, Strain/Indicator: TA98, Metabolic Activation: RAT, LIVER, S-9, PCB, Method: PREINCUBATION): inactive; negative
- mutagenic call (Test System: AMES SALMONELLA TYPHIMURIUM, Strain/Indicator: TA100, Metabolic Activation: NONE, Method: PREINCUBATION): inactive; negative
- mutagenic call [1]: inactive; negative
- mutagenic call (Test System: AMES SALMONELLA TYPHIMURIUM, Strain/Indicator: TA100, Metabolic Activation: RAT, LIVER, S-9, AROCLOR 1254, Method: STANDARD PLATE): inactive; negative
- mutagenic call (Test System: AMES SALMONELLA TYPHIMURIUM, Strain/Indicator: TA100, Metabolic Activation: RAT, LIVER, S-9, PCB, Method: PREINCUBATION): inactive; negative
- mutagenic call (Test System: AMES SALMONELLA TYPHIMURIUM, Strain/Indicator: TA1535, Metabolic Activation: NONE, Method: STANDARD PLATE): inactive; negative
- mutagenic call (Test System: AMES SALMONELLA TYPHIMURIUM, Strain/Indicator: TA1535, Metabolic Activation: RAT, LIVER, S-9, AROCLOR 1254, Method: STANDARD PLATE): inactive; negative
- mutagenic call (Test System: AMES SALMONELLA TYPHIMURIUM, Strain/Indicator: TA1537, Metabolic Activation: NONE, Method: STANDARD PLATE): inactive; negative
- mutagenic call (Test System: AMES SALMONELLA TYPHIMURIUM, Strain/Indicator: TA1537, Metabolic Activation: RAT, LIVER, S-9, AROCLOR 1254, Method: STANDARD PLATE): inactive; negative
- mutagenic call (Test System: AMES SALMONELLA TYPHIMURIUM, Strain/Indicator: TA1538, Metabolic Activation: NONE, Method: STANDARD PLATE): inactive; negative
- mutagenic call (Test System: AMES SALMONELLA TYPHIMURIUM, Strain/Indicator: TA1538, Metabolic Activation: RAT, LIVER, S-9, AROCLOR 1254, Method: STANDARD PLATE): inactive; negative
- mutagenic call (Test System: UDS RAT HEPATOCYTES, Strain/Indicator: THY INCORP, Metabolic Activation: NONE, Method: SCINTILLATION SPECTROMETRY): inactive; negative
